Data as given in patent publication US20040248825A1, “Use of neuraminidase inhibitors to prevent flu associated bacterial infections” (St. Jude Children's Research Hospital, priority 2001, published 2004).
Entries after “also recorded” stand apart in the source; their conditions may differ. Where two headings read alike, the source gives them in different places.

Key:
[1] = tested on: influenza A/PR/8/34 (H1N1) followed by S. pneumoniae D39; assay: Treatment study: sequential dual infection, oseltamivir begun 48 hours after influenza infection, pneumococcal challenge on day 7; type: in vivo, Balb/cByJ mice; conditions: for Survival (Mantel-Cox Chi-Squared test on Kaplan-Meier survival data): oseltamivir 10 mg/kg/day BID begun 48 h after influenza, until D39 challenge on day 7, p<0.01 vs water control; for Mean viral lung titer / Weight Loss (% of Baseline) / Mean bacterial lung titer: treatment study; for Mean bacterial lung titer: day 8, 24 hours after pneumococcal challenge
[2] = cited from earlier work
[3] = tested on: influenza A/PR/8/34 (H1N1) followed by S. pneumoniae D39; assay: Chemoprophylaxis study: mice infected with influenza virus on day 0, oseltamivir begun 4 hours before infection, pneumococcal challenge on day 7; type: in vivo, Balb/cByJ mice; conditions: for Weight Loss (% of Baseline) / Mean viral lung titer: prophylaxis study

## CCOC(=O)C1=C[C@@H](OC(CC)CC)[C@H](NC(C)=O)[C@@H](N)C1 [oseltamivir, oseltamivir phosphate]
[1]; lung tissue on day 8, untreated controls: diffuse, severe infection disseminated throughout both lungs
  Lung histopathology: lobar bronchopneumonia infection that is confined to defined regions of the lungs
[1]
  Survival (Mantel-Cox Chi-Squared test on Kaplan-Meier survival data): significantly prolonged
  Mean bacterial lung titer: 7.1 log10 CFU/ml
[1]; listed as Oseltamivir
  Survival (Mantel-Cox Chi-Squared test on Kaplan-Meier survival data): prolongs survival
  Mean bacterial lung titer: 7.08 log10 CFU/ml
[1]; oseltamivir group of the treatment study, control 1 day
  Median survival: 5 days
[1]; treatment group, in 48 hours after pneumococcal challenge, control 5%
  Weight lost by surviving mice, % of their day 7 weight: 4%
[1]; treatment group, control 0/9
  Survival (number survived/total): 3/10
[1]; day 3
  Mean viral lung titer: 6.8 log10
  Weight Loss (% of Baseline): 7.6 % of Baseline
[1]; day 3, listed as Oseltamivir
  Mean viral lung titer: 6.84 log10
[1]; day 7
  Mean viral lung titer: 5.4 log10
  Weight Loss (% of Baseline): 23 % of Baseline
[1]; day 7, listed as Oseltamivir
  Mean viral lung titer: 5.42 log10
[2]; oral
  Half-life: 6 to 10 h
  Systemic bioavailability: 80%
[3]; oseltamivir 10 mg/kg/day BID for 5 days from 4 h before influenza, 100 TCID50 PR8 day 0, 100 CFU D39 day 7, p<0.005 vs water control
  Survival (Mantel-Cox Chi-Squared test on Kaplan-Meier survival data): significantly prolonged; also recorded: prolongs survival
[3]; prophylaxis group, after pneumococcal challenge, control <1 day
  Median survival: 7 days
[3]; prophylaxis group, followed 21 days, control 0/10
  Survival (number survived/total): 5/10
[3]; prophylaxis group, in 48 hours after pneumococcal challenge, control 9.5%
  Weight lost by surviving mice, % of their day 7 weight: 7.5%
[3]; day 3
  Weight Loss (% of Baseline): 4.0 % of Baseline
[3]; day 3, log10/ml TCID50 in MDCK cells
  Mean viral lung titer: 4.3 log10
[3]; day 3, log10/ml TCID50 in MDCK cells, listed as Oseltamivir
  Mean viral lung titer: 4.32 log10
[3]; day 7
  Weight Loss (% of Baseline): 9 % of Baseline
[3]; day 7, before pneumococcal challenge, log10/ml TCID50
  Mean viral lung titer: 3.84 log10
[3]; day 7, listed as Oseltamivir
  Weight Loss (% of Baseline): 8.7 % of Baseline

## CC(=O)N[C@H]1[C@H]([C@H](O)[C@H](O)CO)OC(C(=O)O)=C[C@@H]1N=C(N)N [Zanamivir, zanamivir]
[2]; dry powder for inhalation
  Fraction of inhaled drug that reaches the lungs: approx. 20%
[2]; in vivo
  Gastrointestinal absorption: poorly absorbed
  Half-life: 2.5 to 5 h
